{"source": "patent US20240076287A1", "about": "“SOLID FORMS OF A CDK2 INHIBITOR” (PFIZER INC., priority 2020, published 2024)", "key": {"[1]": {"assay": "slurry stability experiments (solid form by PXRD)", "format": "physicochemical", "conditions": "for Final Form: slurry in 2-propanol/water, Aw 0.9", "experimental": "Slurry experiments were conducted as follows. The indicated starting form of PF-07104091 was transferred to a 2 mL vial. The indicated solvent or solvent mixture was added to obtain a slurry at the specified temperature (Table 14). Additional solids were added as necessary to ensure a sufficiently thick slurry. A magnetic stir bar was added and the vial was tightly capped to prevent solvent loss. The resulting slurry was left to stir at the specified temperature. Aliquots were pulled from the slurry periodically or after a certain duration. Solids were separated from the liquid by centrifuge filtration and the solids were characterized by powder x-ray diffraction. […] (ambient), and 40° C."}, "[2]": {"assay": "moisture sorption (DVS) study", "format": "physicochemical"}}, "data": [{"smiles": "COCc1cc(C(=O)Nc2cc([C@H]3CC[C@@H](OC(=O)NC(C)C)C3)[nH]n2)n(C)n1", "note": "[PF-07104091 monohydrate (Form 3), (1R,3S)-3-[3-({[3-(methoxymethyl)-1-methyl-1H-pyrazol-5-yl]carbonyl}amino)-1H-pyrazol-5-yl]cyclopentyl propan-2-ylcarbamate]", "values": [{"measurement": "thermodynamic stability of the solid form", "setting": "[1]; at 4° C., ˜25° C. (ambient), and 40° C.", "value": "thermodynamically most stable form"}]}, {"smiles": "COCc1cc(C(=O)Nc2cc([C@H]3CC[C@@H](OC(=O)NC(C)C)C3)[nH]n2)n(C)n1", "note": "[Form 1, (1R,3S)-3-[3-({[3-(methoxymethyl)-1-methyl-1H-pyrazol-5-yl]carbonyl}amino)-1H-pyrazol-5-yl]cyclopentyl propan-2-ylcarbamate]", "values": [{"measurement": "Final Form", "setting": "[1]; 4 °C", "value": "Form 3"}, {"measurement": "Final Form", "setting": "[1]; ambient", "value": "Form 3"}]}, {"smiles": "COCc1cc(C(=O)Nc2cc([C@H]3CC[C@@H](OC(=O)NC(C)C)C3)[nH]n2)n(C)n1", "note": "[PF-07104091 (Form 2), (1R,3S)-3-[3-({[3-(methoxymethyl)-1-methyl-1H-pyrazol-5-yl]carbonyl}amino)-1H-pyrazol-5-yl]cyclopentyl propan-2-ylcarbamate]", "values": [{"measurement": "solid form of the post moisture sorption material", "setting": "[2]; PXRD after DVS", "value": "no change in solid form"}, {"measurement": "mass gain", "setting": "[2]; at 60% RH", "value": "~0.7", "unit": "%"}, {"measurement": "mass gain", "setting": "[2]; at 75% RH", "value": "~1", "unit": "%"}, {"measurement": "mass gain", "setting": "[2]; at 90% RH", "value": "~1.6", "unit": "%"}, {"measurement": "hygroscopicity", "setting": "[2]; moisture sorption (DVS)", "value": "slightly hygroscopic"}]}]}
